Converted amounts (≈) assume the structure as drawn.
Key:
Typhlodromus pyri = assay: LR50; higher = less toxic; conditions: not reported; mortality
Aphidius rhopalosiphi = assay: LR50; higher = less toxic; conditions: not reported; mortality
Oncorhynchus mykiss = conditions: acute; duration: 96 hours; mortality
Rattus norvegicus = conditions: for LD50: acute, mortality
Apis mellifera = conditions: acute; dermal; mortality
Coturnix japonica = conditions: acute, oral, mortality

NC(=O)Cc1cccc2ccccc12 [1-Naphthaleneacetamide]
LR50 (Typhlodromus pyri): > 40 g/ha
LR50 (Aphidius rhopalosiphi): > 40 g/ha
LC50 (Oncorhynchus mykiss): 44 µg/mL (≈ 238 µM)
LD50 (Rattus norvegicus; oral, M): 1660 mg/kg-day
LD50 (Rattus norvegicus; oral): > 5050 mg/kg-day
NOAEL (Rattus norvegicus; chronic, duration: 2 years, organ weight): 43.8 mg/kg-day
NOAEL (Rattus norvegicus; developmental, development): 15 mg/kg-day
NOAEL (Rattus norvegicus; subchronic, duration: 90 days, oral, hematological): 10 mg/kg-day
NOAEL (Rattus norvegicus; subchronic, duration: 90 days, oral, organ weight): 5 mg/kg-day
LD50 (Mus musculus; acute, oral, F, mortality): 1930 mg/kg-day
NOAEL (Mus musculus; chronic, duration: 18 months, other): 195 mg/kg-day
LD50 (Apis mellifera): > 100 µg/piece
LC50 (Coturnix japonica; diet): 4370 mg/kg-day
LD50 (Coturnix japonica): > 2000 mg/kg-day

Reference: EPA's ToxValDB 9.5 (doi:10.2903/j.efsa.2011.2020)
